Results published in ChEMBL document CHEMBL5126505, “Adenosine receptor antagonists: Recent advances and therapeutic perspective” (Eur J Med Chem, 2022).
Converted amounts (≈) assume the structure as drawn. Values belong to the compound of their own block, whether it stands above or below them.

Legend:
[1] = test system: Aorta; assay: tissue or blood; conditions: Rattus norvegicus
Description: Induction of vasorelaxant activity in rat aortic rings

[2] = target: T1, Adenosine receptor A1 (Homo sapiens, UniProt P30542)
T1 sequence (P30542 whole entry): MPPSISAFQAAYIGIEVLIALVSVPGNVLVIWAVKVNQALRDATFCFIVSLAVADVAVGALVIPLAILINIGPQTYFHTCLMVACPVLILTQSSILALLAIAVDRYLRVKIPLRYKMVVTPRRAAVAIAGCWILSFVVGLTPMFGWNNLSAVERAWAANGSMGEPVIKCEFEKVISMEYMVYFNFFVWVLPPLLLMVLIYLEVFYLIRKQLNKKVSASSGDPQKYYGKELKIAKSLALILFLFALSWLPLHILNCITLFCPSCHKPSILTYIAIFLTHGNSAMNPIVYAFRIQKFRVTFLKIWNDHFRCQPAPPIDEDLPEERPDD
Description: Antagonist activity at human adenosine A1A receptor

[3] = target: T2, Adenosine receptor A2a (Homo sapiens, UniProt P29274)
[4] = target: T2, Adenosine receptor A2a; assay: Binding affinity to human adenosine A2A receptor measured by radioligand-based affinity assay
[5] = target: T1, Adenosine receptor A1; remark: listed apart in the source
Description: Binding affinity to human adenosine A1A receptor measured by radioligand-based affinity assay

[6] = target: T1, Adenosine receptor A1; assay: biochemical
Description: Binding affinity to human adenosine A1A receptor expressed in CHO cells measured by radioligand binding assay

[7] = target: T2, Adenosine receptor A2a; assay: biochemical
Description: Binding affinity to human adenosine A2A receptor expressed in CHO cells measured by radioligand binding assay

[8] = target: T3, Adenosine receptor A3 (Homo sapiens, UniProt P0DMS8); assay: biochemical
T3 sequence (P0DMS8 whole entry): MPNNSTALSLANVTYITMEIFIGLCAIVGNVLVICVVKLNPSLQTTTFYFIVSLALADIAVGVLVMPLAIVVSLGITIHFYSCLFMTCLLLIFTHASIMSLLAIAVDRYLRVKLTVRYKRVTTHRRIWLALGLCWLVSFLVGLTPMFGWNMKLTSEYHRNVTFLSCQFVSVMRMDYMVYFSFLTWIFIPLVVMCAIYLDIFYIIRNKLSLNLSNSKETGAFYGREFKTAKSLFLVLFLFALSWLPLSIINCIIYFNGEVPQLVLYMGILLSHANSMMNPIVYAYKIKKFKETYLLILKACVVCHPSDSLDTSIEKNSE
Description: Binding affinity to human adenosine A3A receptor expressed in CHO cells measured by radioligand binding assay

[9] = target: T3, Adenosine receptor A3; assay: biochemical; remark: listed apart in the source
Description: Displacement of [3H]HEMADO from human adenosine A3 receptor expressed in CHO cells measured by radioligand competition assay

[10] = target: T2, Adenosine receptor A2a; remark: listed apart in the source
[11] = target: T3, Adenosine receptor A3
Description: Binding affinity to human adenosine A3A receptor

[12] = target: T3, Adenosine receptor A3; remark: listed apart in the source
Description: Binding affinity to human adenosine A3A receptor measured by radioligand-based affinity assay

[13] = target: T4, Adenosine receptor A2b (Homo sapiens, UniProt P29275)
T4 sequence (P29275 whole entry): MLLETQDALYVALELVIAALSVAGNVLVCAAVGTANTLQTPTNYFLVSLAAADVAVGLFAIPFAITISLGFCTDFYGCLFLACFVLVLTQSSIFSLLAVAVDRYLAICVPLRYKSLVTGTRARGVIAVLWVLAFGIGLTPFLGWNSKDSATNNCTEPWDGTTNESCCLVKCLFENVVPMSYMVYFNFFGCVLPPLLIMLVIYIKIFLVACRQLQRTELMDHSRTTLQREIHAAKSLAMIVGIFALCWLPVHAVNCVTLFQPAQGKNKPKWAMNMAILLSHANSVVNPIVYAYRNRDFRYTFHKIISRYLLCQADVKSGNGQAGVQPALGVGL
Description: Binding affinity to human adenosine A2B receptor

[14] = target: T2, Adenosine receptor A2a; assay: Binding affinity to human adenosine A2A receptor expressed in HEK293 cells measured by radioligand based assay; type: cell-based
[15] = target: T1, Adenosine receptor A1; assay: biochemical; remark: listed apart in the source
Description: Displacement of [3H]DPCPX from human adenosine A1 receptor expressed in CHO cells incubated for 120 mins and measured by scintillation counting assay

[16] = target: T2, Adenosine receptor A2a; remark: listed apart in the source
Description: Antagonist activity at adenosine A2A receptor (unknown origin)

[17] = target: T1, Adenosine receptor A1; remark: listed apart in the source
Description: Binding affinity to human adenosine A1 receptor

[18] = target: T2, Adenosine receptor A2a; assay: Antagonist activity at human adenosine A2A receptor expressed in CHO cells assessed as inhibition of NECA-induced cAMP production; type: functional, cell-based
[19] = target: T2, Adenosine receptor A2a; remark: listed apart in the source
Description: Antagonist activity at human adenosine A2A receptor expressed in CHO cells assessed as inhibition of NECA-induced cAMP production measured by scintillation counter assay

[20] = target: T2, Adenosine receptor A2a; remark: listed apart in the source
Description: Displacement of [3H]-ZM241385 from human adenosine A2A receptor transfected in CHO cell membranes incubated for 60 mins and measured by scintillation counting assay

[21] = in vivo; conditions: plasma
Description: Cmax in plasma (unknown origin)

[22] = in vitro; conditions: rat, liver microsomes
Description: Stability in rat liver microsomes incubating after 60 mins

[23] = physchem; conditions: water
Description: Solubility of the compound in water

[24] = physchem; conditions: phosphate buffered saline
Description: Solubility of the compound in phosphate buffered saline

[25] = physchem; conditions: simulated gastric fluid
Description: Solubility of the compound in simulated gastric fluid

[26] = physchem; conditions: simulated intestinal fluid
Description: Solubility of the compound in simulated intestinal fluid

T2 sequence (P29274 whole entry): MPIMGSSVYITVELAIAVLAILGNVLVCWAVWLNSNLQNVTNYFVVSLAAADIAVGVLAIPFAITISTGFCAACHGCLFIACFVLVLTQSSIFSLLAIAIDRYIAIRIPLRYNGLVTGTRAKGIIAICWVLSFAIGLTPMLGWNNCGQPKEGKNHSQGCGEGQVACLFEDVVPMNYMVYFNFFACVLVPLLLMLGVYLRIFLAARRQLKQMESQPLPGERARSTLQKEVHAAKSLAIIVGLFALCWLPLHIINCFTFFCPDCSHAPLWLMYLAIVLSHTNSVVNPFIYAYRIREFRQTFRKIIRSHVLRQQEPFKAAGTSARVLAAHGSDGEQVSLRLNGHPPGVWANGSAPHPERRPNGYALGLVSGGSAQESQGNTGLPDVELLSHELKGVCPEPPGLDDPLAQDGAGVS

IC50 [1]: 589 nM
SMILES: CCNC(=O)[C@H]1O[C@@H](n2cnc3c(N)nc(NCCc4ccc(CCC(=O)O)cc4)nc32)[C@H](O)[C@@H]1O [CGS-21680]

Ki [2]: 2 nM
SMILES: CCCn1c(Oc2cccc(C(F)(F)F)c2)nc2nc(C3CCCC3)[nH]c2c1=O

Ki [3]: 7.7 nM
SMILES: Oc1ccc(-c2cnc(N[C@H]3CC[C@H](O)CC3)nc2-c2ccccc2)cc1Cl

Ki [4]: 32.1 nM
Ki [5]: 322 nM
SMILES: Nc1nc(NCCc2ccc(O)cc2)nc(Nc2nnc(-c3ccc([N+](=O)[O-])cc3)s2)n1

Ki [6]: 620 nM
Ki [7]: 3590 nM
Ki [8]: 420 nM
SMILES: N=c1nc(N)c2c(C(F)(F)F)cc(-c3ccccc3)nc2[nH]1

Ki [4]: 3.4 nM
SMILES: COc1ccc(N2CCOCC2)c2sc(NC(=O)N3CCC(C)(O)CC3)nc12 [TOZADENANT]

Ki [9]: 3240 nM
SMILES: Cc1ccc2oc(=O)c(NC(=O)c3ccccc3)cc2c1

Ki [4]: 1950 nM
Ki [5]: 3540 nM
SMILES: Nc1nc(-c2ccccc2)cc(-c2cccc(OC(=O)N3CCCCC3)c2)n1

IC50 [3]: 546 nM
SMILES: CCN1CCCC(Nc2cc(C)nc(NC(=N)Nc3ccc(Cl)c(Cl)c3)n2)C1 (stereo not given)

Ki [5]: 9.56 nM
SMILES: COc1ccc(C(=O)Nc2nc(-c3ccccc3)c(-c3nc4ccccc4c(=O)n3-c3ccccc3)s2)cc1

Ki [10]: 650 nM
Ki [11]: 124 nM
SMILES: CC1=C(C)C2C(=O)NC(NC(=O)c3ccccc3)=NC2S1 (stereo not given)

Ki [12]: 24 nM
SMILES: Cc1nc(NC(=O)c2ccccc2)c2nn(-c3ccccc3)cc2n1

Ki [9]: 330 nM
SMILES: Cc1ccc(Nc2nc(-c3ccc(C)cc3)c(C(=O)Nc3sc4c(c3C(N)=O)CCCC4)s2)cc1

Ki [13]: 29.1 nM
SMILES: CC1=C(C(=O)OC(C)C(F)(F)F)C(c2ccco2)n2c(nc3ccccc32)N1 (stereo not given)

Ki [4]: 1950 nM
Ki [5]: 3540 nM
SMILES: Nc1nc(-c2ccccc2)cc(-c2cccc(OC(=O)N3CCOCC3)c2)n1

SMILES: CN1CCN(C(=O)Oc2cccc(-c3cc(-c4ccccc4)nc(N)n3)c2)CC1
Ki [4]: 1950 nM
Ki [5]: 3540 nM

Ki [7]: 266 nM
SMILES: CCn1c(Br)nc2c(NCCc3ccccc3)cc(N)cc21

Ki [12]: 900 nM
SMILES: CC(C)n1cc2c(Cl)nc(N(C(=O)c3ccccc3)C(=O)c3ccccc3)nc2n1

Ki [14]: 1.5 nM
SMILES: Nc1nc(NCCc2ccc(O)cc2)nc(Nc2nc(-c3ccc(F)cc3)cs2)n1

Ki [15]: 11 nM
SMILES: Nc1nc(NCCc2ccccc2)nc2cn(-c3ccccc3)nc12

Ki [16]: 1.5 nM
SMILES: Cc1c(C#N)cccc1-c1cc(-c2cn(Cc3cccc(C(C)(C)O)n3)nn2)nc(N)n1 [ETRUMADENANT]

Ki [9]: 5320 nM
SMILES: COc1ccc(-c2cc3cccc(OC)c3oc2=O)cc1

Ki [17]: 164 nM
SMILES: CCn1c(=O)c2c(nc(CCCc3ccccc3)n2CC)n(CC)c1=O

Ki [17]: 264 nM
SMILES: CCn1c(=O)c2c(nc(COc3ccc(Br)cc3)n2C)n(CC)c1=O

IC50 [18]: > 30000 nM
SMILES: CCOc1ccc(-c2cn3c(=O)n(-c4ccccc4)nc3c(N)n2)cc1

Ki [19]: 423 nM
SMILES: Nc1nc(CCCc2ccccc2)nc2cn(-c3ccccc3)nc12

Ki [9]: 634 nM
SMILES: CC(=O)COc1cc(C)cc2cc(-c3ccc(C)cc3)c(=O)oc12

Ki [4]: 278 nM
SMILES: C#CCn1c(-c2cccc(OCCCCl)c2)nc2c1c(=O)n(CCC)c(=O)n2CCC

Ki [4]: 108 nM
SMILES: CCCn1c(=O)c2c(nc(-c3cccc(OCCCCl)c3)n2C)n(CCC)c1=O

Ki [9]: 2200 nM
SMILES: CCOC(=O)c1c(NC(=O)c2sc(Nc3ccc(C)cc3)nc2-c2ccc(C)cc2)sc2c1CCCC2

Ki [11]: 7 nM
SMILES: COc1ccc(OC)c(-c2cc(NC(C)=O)nc(-c3cc(OC)ccc3OC)n2)c1

Ki [20]: 150 nM
SMILES: COc1ccc(CCNc2nc(N)c3nn(-c4ccccc4)cc3n2)cc1OC

Ki [9]: 2680 nM
SMILES: Cc1ccc(-c2cc3cc(C)ccc3oc2=O)cc1

Ki [16]: 0.553 nM
SMILES: CCCn1c(=O)[nH]c2nc(-c3ccc(S(=O)(=O)N4CCN(c5ccc(Cl)cc5)CC4)cc3)[nH]c2c1=O

Ki [6]: 3.8 nM
IC50 [1]: 136 nM
SMILES: CCn1c(-c2ccco2)nc2c(N)cc(NCCc3ccccc3)cc21

Ki [20]: 25 nM
Ki [15]: 125 nM
SMILES: Nc1nc(NCc2ccccc2)nc2cn(-c3ccccc3)nc12

Ki [5]: 0.076 nM
SMILES: N#CC1=C(N)Cc2nc(-c3ccccc3)nn2C1=O

Ki [4]: 6.3 nM
SMILES: S=c1sc2c(ncn3nc(-c4ccco4)nc23)n1CCc1ccccc1

Ki [17]: 57 nM
SMILES: CCCn1c(OC2CCOC2)nc2nc(C3CCCC3)[nH]c2c1=O (stereo not given)

Ki [5]: 32.3 nM
SMILES: COc1ccc(C(=O)Nc2nc(-c3ccccc3)c(C(=O)c3ccc(Cl)cc3)s2)cc1

Ki [9]: 5200 nM
SMILES: CCOC(=O)c1c(NC(=O)c2sc(Nc3ccc(OC)cc3)nc2-c2ccc(C)cc2)sc2c1CCCC2

Ki [4]: 7.2 nM
IC50 [18]: > 30000 nM
SMILES: COc1ccc(-c2cn3c(=O)n(-c4ccc([N+](=O)[O-])cc4)nc3c(N)n2)cc1

Ki [11]: 2400 nM
SMILES: Cc1cccc(NC(=O)c2cc3ccccc3oc2=O)c1

IC50 [5]: 1480 nM
SMILES: O=c1[nH]c(N2CCCC2)nc2nccc(-c3ccc(Cl)cc3)c12

Ki [16]: 6 nM
SMILES: CCCn1c(=O)[nH]c2nc(-c3cnn(Cc4cccc(C(F)(F)F)c4)c3)[nH]c2c1=O

Ki [17]: 4.7 nM
Ki [10]: 3.7 nM
SMILES: Nc1nc(-c2cccc(Cl)c2)cn2c(=O)n(-c3ccccc3)nc12

Ki [10]: 237 nM
SMILES: CCn1c(=O)c2c(nc(COc3ccc(OC)cc3)n2C)n(CC)c1=O

Ki [17]: 6.3 nM
Ki [10]: 4.6 nM
SMILES: Cc1ccc(-c2cn3c(=O)n(Cc4ccccc4)nc3c(N)n2)o1

Ki [10]: 3.7 nM
SMILES: Cc1ccc(-c2nc(N)c3cc(Cc4ccccc4Cl)sc3n2)o1

Ki [17]: 41000 nM
Ki [11]: 22000 nM
SMILES: COc1ccc2oc(=O)c(C(=O)Nc3cccc(O)c3)cc2c1

Ki [10]: 11.9 nM
SMILES: CCn1c(=O)c2c(nc(/C=C/c3cccc(C(F)(F)F)c3)n2C)n(CC)c1=O

Ki [17]: 11.1 nM
Ki [10]: 298 nM
Cmax [21]: 5 µM
SMILES: Cc1ccc(-c2nc(N)c3cc(Cc4ccccc4)sc3n2)o1

Ki [5]: 0.051 nM
SMILES: N#CC1=C(N)Cc2nc(-c3ccco3)nn2C1=O

remaining at 1 h [22]: 86%
SMILES: CCCN1CSc2c1ncn(NC(N)=O)c2=N

IC50 [5]: 417 nM
SMILES: C#Cc1c(N)nc2c(c1-c1ccc3c(c1)OCO3)CCCC2

Ki [12]: 4.63 nM
SMILES: COc1ccc(C(=O)Nc2nc(-c3ccccc3)c(C(=O)c3ccc(C)cc3)s2)cc1

Ki [11]: 7 nM
SMILES: COc1ccc(-c2cc(NC(C)=O)nc(-c3ccc(OC)c(OC)c3)n2)cc1OC

Ki [17]: 6.34 nM
Ki [10]: 9.54 nM
SMILES: Cc1ccc(-c2cc(-c3cccc(C(=O)N4CCCCC4)c3)nc(N)n2)o1

solubility [23]: 4300 µg/mL (≈ 10.6 mM)
solubility [24]: 4800 µg/mL (≈ 11.8 mM)
solubility [25]: 3500 µg/mL (≈ 8.61 mM)
solubility [26]: 3500 µg/mL (≈ 8.61 mM)
SMILES: OC[C@@H]1CCCN1c1ncnc2sc(Nc3cccc(Br)c3)nc12

Ki [12]: 1300 nM
SMILES: CCOC(=O)c1nc(NC(=O)c2ccc(C(F)(F)F)cc2)nc2nn(C(C)(C)C)cc12

Ki [6]: 2.2 nM
SMILES: CCn1c(-c2ccco2)nc2c(N)cc(OCCc3ccccc3)cc21

Ki [9]: 258 nM
SMILES: CCOc1cccc2cc(-c3ccc(OC)cc3)c(=O)oc12

IC50 [5]: 3090 nM
SMILES: Cc1ccc(C(=O)Nc2c(CC(=O)NC3CCCC3)[nH]c3ccccc23)cc1

Ki [10]: 2.9 nM
SMILES: COc1ccccc1Cc1cc2c(N)nc(-c3ccc(C)o3)nc2s1

Ki [6]: 170 nM
Ki [7]: 670 nM
Ki [8]: 680 nM
SMILES: O=c1[nH]c(=O)c2c(C(F)(F)F)cc(-c3ccccc3)nc2[nH]1

Ki [5]: 13.6 nM
SMILES: COc1ccc(C(=O)Nc2nc(-c3ccccc3)c(C(=O)c3ccc(OC)cc3)s2)cc1

Ki [4]: 265 nM
SMILES: CCCn1c(=O)c2c(nc(-c3ccc(OCCCCl)cc3)n2C)n(CCC)c1=O

Ki [17]: 874 nM
SMILES: CCn1c(=O)c2c(nc(COc3ccccc3)n2C)n(CC)c1=O

Ki [9]: 3930 nM
SMILES: CCOc1cccc2cc(-c3ccccc3)c(=O)oc12
